Some test systems named below: UACC-62 melanoma; DU-145 prostate; NCI-H226 lung; SW-620 colon; OVCAR-8 ovarian; A498 renal; EKVX NSCLC; MALME-3M melanoma; MDA-MB-435; CAKI-1 renal.
Assay in all cases: DTP human tumour cell line panel, 48 h

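A five-concentration, 48-hour dose response in 96-well plates underlies each endpoint, interpolated linearly between surrounding concentrations. GI50 is the concentration that inhibits growth by half. TGI: total growth inhibition.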 Where only a bound is given, the exact number is not on record here.

For `O=C(COc1cccc(/C=C2\Oc3ccc4ccccc4c3C2=O)c1)c1ccc(Cl)cc1`, the GI50 (in general, the concentration giving 50% growth inhibition) was 81.9 µM in the experiment on UACC-62 melanoma; 39.6 µM with DU-145 prostate; 70.6 µM with NCI-H226 lung; 11.7 µM in the experiment with SW-620 colon; 15.4 µM in the experiment on OVCAR-8 ovarian; > 100 µM in the experiment on A498 renal. Besides, the GI50 in the experiment with EKVX NSCLC was > 100 µM; in the experiment on MALME-3M melanoma, 22.4 µM; in the experiment on MDA-MB-435 it was 51 µM; with CAKI-1 renal it was > 100 µM. Also, the TGI (commonly the concentration at which net growth stops) in the experiment on UACC-62 melanoma was > 100 µM; in the experiment with DU-145 prostate, > 100 µM; with NCI-H226 lung it was > 100 µM; in the experiment with SW-620 colon, 88.3 µM; in the experiment on OVCAR-8 ovarian, 41.9 µM; in the experiment with A498 renal, > 100 µM. The concentration for total growth inhibition (TGI) in the experiment with EKVX NSCLC, in the experiment on MALME-3M melanoma, with MDA-MB-435 and in the experiment with CAKI-1 renal was > 100 µM each time.
Turning to `C[C@@H](COCCC(=O)N1CCN(c2ncc(C(F)(F)F)cn2)CC1)Nc1cn[nH]c(=O)c1C(F)(F)F`, the GI50 in the experiment with UACC-62 melanoma was 45.3 µM; with DU-145 prostate it was 37.6 µM; in the experiment on NCI-H226 lung, > 56.2 µM; in the experiment on SW-620 colon, 3.84 µM; in the experiment with OVCAR-8 ovarian, 32.7 µM; with A498 renal it was 0.0219 µM. Also, the GI50 with EKVX NSCLC was > 94 µM; in the experiment with MALME-3M melanoma, > 100 µM; in the experiment with MDA-MB-435, > 100 µM; with CAKI-1 renal, 14.1 µM. Also, the TGI with UACC-62 melanoma, in the experiment with DU-145 prostate, with NCI-H226 lung, with SW-620 colon, in the experiment with OVCAR-8 ovarian and in the experiment on EKVX NSCLC was > 100 µM in each case. Also, the total growth inhibition concentration (TGI) with MALME-3M melanoma, with MDA-MB-435 and in the experiment on CAKI-1 renal was > 100 µM each time.
Turning to `CCCCCCCCCCCCCCCCCCOc1ccccc1CC(=O)NCC[N+](C)(C)C`, the GI50 is 6.55 µM in the experiment with UACC-62 melanoma; 4.97 µM in the experiment with DU-145 prostate; 4.4 µM in the experiment with NCI-H226 lung; 5.8 µM with SW-620 colon; 5.79 µM in the experiment on OVCAR-8 ovarian; 9.55 µM in the experiment on A498 renal. The GI50 with EKVX NSCLC was 18 µM; in the experiment on MALME-3M melanoma, 14.8 µM; in the experiment on MDA-MB-435 it was 10.6 µM; in the experiment on CAKI-1 renal, 4.39 µM. Further, the total growth inhibition concentration (TGI) is 62.5 µM in the experiment on UACC-62 melanoma; 39.2 µM with DU-145 prostate; 42.9 µM in the experiment with NCI-H226 lung; 40.8 µM in the experiment with SW-620 colon; 41.9 µM in the experiment with OVCAR-8 ovarian; 49.8 µM in the experiment with A498 renal. Besides, the TGI came to 66 µM in the experiment with EKVX NSCLC, 94 µM in the experiment with MALME-3M melanoma, 55.1 µM in the experiment with MDA-MB-435 and 36.7 µM in the experiment with CAKI-1 renal.
Turning to `C=C(CNC(=O)c1ccccc1)c1ccc(C(=O)Nc2ccccc2N)cc1`, the GI50 with UACC-62 melanoma is 1.75 µM; in the experiment on DU-145 prostate, 4.08 µM; in the experiment on NCI-H226 lung it was 1.39 µM; in the experiment with SW-620 colon it was 3.62 µM; in the experiment on OVCAR-8 ovarian it was 5.61 µM; in the experiment with A498 renal, 1.37 µM. The GI50 is > 100 µM with EKVX NSCLC, 2 µM in the experiment with MALME-3M melanoma, 6.88 µM in the experiment on MDA-MB-435 and 4.09 µM in the experiment on CAKI-1 renal. Further, the concentration for total growth inhibition (TGI) in the experiment on UACC-62 melanoma is 11.4 µM; in the experiment on DU-145 prostate, > 100 µM; with NCI-H226 lung it was 7.41 µM; in the experiment with SW-620 colon, > 100 µM; with OVCAR-8 ovarian it was > 100 µM; in the experiment with A498 renal, 7.58 µM. In addition, the total growth inhibition concentration (TGI) in the experiment with EKVX NSCLC is > 100 µM; in the experiment with MALME-3M melanoma it was > 100 µM; in the experiment with MDA-MB-435, > 100 µM; in the experiment on CAKI-1 renal, 45.4 µM.
Regarding `COc1cc2c3c(n(CCCBr)c(=O)c2cc1OC)-c1ccc(F)cc1C3=O`, the GI50 is 3.93 µM in the experiment with UACC-62 melanoma; 4.33 µM with DU-145 prostate; 28 µM in the experiment with NCI-H226 lung; 7.02 µM with SW-620 colon; 26.4 µM with OVCAR-8 ovarian; 14.8 µM in the experiment on A498 renal. For the same compound, the GI50 in the experiment on EKVX NSCLC is 49.5 µM; in the experiment on MALME-3M melanoma, 43 µM; in the experiment with MDA-MB-435, 43.9 µM; in the experiment on CAKI-1 renal it was 7.9 µM. The TGI in the experiment with UACC-62 melanoma is 24.5 µM; in the experiment on DU-145 prostate, 20.6 µM; in the experiment with NCI-H226 lung, > 100 µM; with SW-620 colon it was > 100 µM; with OVCAR-8 ovarian, > 100 µM; in the experiment with A498 renal, 40.9 µM. Further, the TGI in the experiment on EKVX NSCLC is > 100 µM; in the experiment on MALME-3M melanoma, > 100 µM; in the experiment with MDA-MB-435 it was > 100 µM; in the experiment on CAKI-1 renal, 33.7 µM.
On to `COc1cccc(CCC(=O)c2cc3c(N)c(C(=O)Nc4cccc(Cl)c4C)sc3nc2C)c1`, for which the 50% growth inhibitory concentration (GI50) in the experiment with UACC-62 melanoma is 0.407 µM; in the experiment on DU-145 prostate, 1.91 µM; in the experiment with NCI-H226 lung, 1.45 µM; with SW-620 colon it was 0.469 µM; with OVCAR-8 ovarian, 1.44 µM; in the experiment on A498 renal it was 0.248 µM. Besides, the GI50 is 0.998 µM in the experiment on EKVX NSCLC, 0.469 µM with MALME-3M melanoma, 0.197 µM in the experiment with MDA-MB-435 and 0.535 µM in the experiment on CAKI-1 renal. Further, the TGI was > 100 µM in the experiment on UACC-62 melanoma; > 100 µM in the experiment on DU-145 prostate; 32.7 µM in the experiment with NCI-H226 lung; > 100 µM in the experiment with SW-620 colon; > 100 µM in the experiment on OVCAR-8 ovarian; 2.47 µM in the experiment with A498 renal. In addition, the concentration for total growth inhibition (TGI) in the experiment with EKVX NSCLC was > 100 µM; with MALME-3M melanoma it was > 100 µM; with MDA-MB-435, 0.612 µM; with CAKI-1 renal, > 100 µM.
Regarding `O=C(CNc1ccc2c(=S)c3ccccc3[nH]c2c1)Nc1ccccc1-c1ccccc1NC(=O)CNc1ccc2c(=S)c3ccccc3[nH]c2c1`, the total growth inhibition concentration (TGI) with UACC-62 melanoma was 44.3 µM; with DU-145 prostate it was 37.4 µM; in the experiment on NCI-H226 lung, 54.6 µM; in the experiment with SW-620 colon it was 39.5 µM; in the experiment on OVCAR-8 ovarian, 55.7 µM; with A498 renal, 55.6 µM. Further, the TGI in the experiment with EKVX NSCLC is 65.6 µM; in the experiment with MALME-3M melanoma, 31.7 µM; in the experiment on MDA-MB-435, > 52 µM; with CAKI-1 renal, 75.6 µM.
For `COc1ccc2c(c1)c(-c1ccc(-c3cn(C)c4ccc(OC)cc34)[nH]1)cn2C`, the GI50 with UACC-62 melanoma was 2.14 µM; with DU-145 prostate, 10.6 µM; in the experiment with NCI-H226 lung it was 8.2 µM; in the experiment with SW-620 colon it was 2.26 µM; with OVCAR-8 ovarian, 2.71 µM; in the experiment on A498 renal, 10.9 µM. In addition, the GI50 in the experiment with EKVX NSCLC was 1.73 µM; with MALME-3M melanoma, 2.64 µM; with MDA-MB-435, 4.92 µM; with CAKI-1 renal, 3.36 µM. In addition, the TGI in the experiment on UACC-62 melanoma amounted to 6.55 µM; in the experiment with DU-145 prostate, 31.1 µM; in the experiment with NCI-H226 lung it was 22.2 µM; with SW-620 colon, 5.86 µM; with OVCAR-8 ovarian, 12.2 µM; with A498 renal it was 49.1 µM. For the same compound, the TGI with EKVX NSCLC turned out to be 3.74 µM; in the experiment with MALME-3M melanoma, 9.03 µM; in the experiment with MDA-MB-435, 20.6 µM; with CAKI-1 renal, 11.2 µM.

(Values after PubChem BioAssay (NCI).)
